Tests used:
Format in all cases: in vivo
[1] = test system: barnyardgrass (Echinochloa crus-galli); assay: Test A preemergence, barnyardgrass; conditions: 0 to 100 scale, 0 is no effect, 100 is complete control
Excerpt: (§1) Seeds of plant species selected from barnyardgrass (Echinochloa crus-galli), kochia (Kochia scoparia), ragweed (common ragweed, Ambrosia elatior), ryegrass, Italian (Lolium multiflorum), foxtail, giant (Setaria faberii), foxtail, green (Setaria viridis), and pigweed (Amaranthus retroflexus) were planted into a blend of loam soil and sand and treated preemergence with a directed soil spray using test chemicals formulated in a non-phytotoxic solvent mixture which included a surfactant.
(§2) At the same time, plants selected from these weed species and also wheat (Triticum aestivum), corn (Zea mays), blackgrass (Alopecurus myosuroides), and galium (catchweed bedstraw, Galium aparine) were planted in pots containing the same blend of loam soil and sand and treated with postemergence applications of test chemicals formulated in the same manner. Plants ranged in height from 2 to 10 cm and were in the one- to two-leaf stage for the postemergence treatment. Treated plants and untreated controls were maintained in a greenhouse for approximately 10 d, after which time all treated plants were compared to untreated controls and visually evaluated for injury. Plant response ratings, summarized in Table A, are based on a 0 to 100 scale where 0 is no effect and 100 is complete control. A dash (-) response means no test result.

kochia (Kochia scoparia) [2] = assay: Test A preemergence, kochia; conditions: 0 to 100 scale, 0 is no effect, 100 is complete control
Excerpt: as §1, §2

[3] = test system: ragweed (common ragweed, Ambrosia elatior); assay: Test A preemergence, ragweed; conditions: 0 to 100 scale, 0 is no effect, 100 is complete control
Excerpt: as §1, §2

[4] = test system: ryegrass, Italian (Lolium multiflorum); assay: Test A preemergence, Italian ryegrass; conditions: 0 to 100 scale, 0 is no effect, 100 is complete control
Excerpt: as §1, §2

[5] = test system: foxtail, giant (Setaria faberii); assay: Test A preemergence, giant foxtail; conditions: 0 to 100 scale, 0 is no effect, 100 is complete control
Excerpt: as §1, §2

[6] = test system: pigweed (Amaranthus retroflexus); assay: Test A preemergence, pigweed; conditions: 0 to 100 scale, 0 is no effect, 100 is complete control
Excerpt: as §1, §2

kochia (Kochia scoparia) [7] = assay: Test A postemergence, kochia; conditions: 0 to 100 scale, 0 no effect, 100 complete control
Excerpt: as §1, §2

[8] = test system: ragweed (common ragweed, Ambrosia elatior); assay: Test A postemergence, ragweed; conditions: 0 to 100 scale, 0 no effect, 100 complete control
Excerpt: as §1, §2

[9] = test system: ryegrass, Italian (Lolium multiflorum); assay: Test A postemergence, Italian ryegrass; conditions: 0 to 100 scale, 0 no effect, 100 complete control
Excerpt: as §1, §2

[10] = test system: foxtail, giant (Setaria faberii); assay: Test A postemergence, giant foxtail; conditions: 0 to 100 scale, 0 no effect, 100 complete control
Excerpt: as §1, §2

[11] = test system: pigweed (Amaranthus retroflexus); assay: Test A postemergence, pigweed; conditions: 0 to 100 scale, 0 no effect, 100 complete control
Excerpt: as §1, §2

[12] = test system: wheat (Triticum aestivum); assay: Test A postemergence, wheat; conditions: 0 to 100 scale, 0 no effect, 100 complete control
Excerpt: as §1, §2

corn (Zea mays) = assay: Test A postemergence, corn; conditions: 0 to 100 scale, 0 no effect, 100 complete control
Excerpt: as §1, §2

[13] = test system: blackgrass (Alopecurus myosuroides); assay: Test A postemergence, blackgrass; conditions: 0 to 100 scale, 0 no effect, 100 complete control
Excerpt: as §1, §2

[14] = test system: galium (catchweed bedstraw, Galium aparine); assay: Test A postemergence, galium; conditions: 0 to 100 scale, 0 no effect, 100 complete control
Excerpt: as §1, §2

rice (Oryza sativa) = assay: Test B flooded paddy test, rice; conditions: Flood, 250 g ai/ha, applied to paddy water, 2-leaf stage, visual evaluation after 13 to 15 d
Protocol: (§3) Plant species in the flooded paddy test selected from rice (Oryza sativa), sedge, umbrella (small-flower umbrella sedge, Cyperus difformis), ducksalad (Heteranthera limosa), and barnyardgrass (Echinochloa crus-galli) were grown to the 2-leaf stage for testing. At the time of treatment, test pots were flooded to 3 cm above the soil surface, treated by application of test compounds directly to the paddy water, and then maintained at that water depth for the duration of the test. Treated plants and controls were maintained in a greenhouse for 13 to 15 d, after which time all species were compared to controls and visually evaluated. Plant response ratings, summarized in Table B, are based on a scale of 0 to 100 where 0 is no effect and 100 is complete control. A dash (-) response means no test result.

[15] = test system: sedge, umbrella (small-flower umbrella sedge, Cyperus difformis); assay: Test B flooded paddy test, umbrella sedge; conditions: Flood, 250 g ai/ha, applied to paddy water, 2-leaf stage, visual evaluation after 13 to 15 d
Protocol: as §3

[16] = test system: ducksalad (Heteranthera limosa); assay: Test B flooded paddy test, ducksalad; conditions: Flood, 250 g ai/ha, applied to paddy water, 2-leaf stage, visual evaluation after 13 to 15 d
Protocol: as §3

[17] = test system: barnyardgrass (Echinochloa crus-galli); assay: Test B flooded paddy test, barnyardgrass; conditions: Flood, 250 g ai/ha, applied to paddy water, 2-leaf stage, visual evaluation after 13 to 15 d
Protocol: as §3

[18] = test system: barnyardgrass (Echinochloa crus-galli); assay: Test A postemergence, barnyardgrass; conditions: 0 to 100 scale, 0 no effect, 100 complete control
Excerpt: as §1, §2

| SMILES | Barnyardgrass plant response rating ([1]; 125 g ai/ha) | Kochia plant response rating (kochia (Kochia scoparia) [2]; 125 g ai/ha) | Ragweed plant response rating ([3]; 125 g ai/ha) | Ryegrass, Italian plant response rating ([4]; 125 g ai/ha) | Foxtail, Giant plant response rating ([5]; 125 g ai/ha) | Plant response rating, Kochia (kochia (Kochia scoparia) [7]; 125 g ai/ha) | Plant response rating, Ragweed ([8]; 125 g ai/ha) | Plant response rating, Ryegrass, Italian ([9]; 125 g ai/ha) | Plant response rating, Foxtail, Giant ([10]; 125 g ai/ha) | Plant response rating, Pigweed ([11]; 125 g ai/ha) | Plant response rating, Wheat ([12]; 125 g ai/ha) | Plant response rating, Corn (corn (Zea mays); 125 g ai/ha) | Plant response rating, Blackgrass ([13]; 125 g ai/ha) | Plant response rating, Galium ([14]; 125 g ai/ha) | Plant response rating, Rice (0 to 100 scale, 0 is no effect, 100 is complete control) (rice (Oryza sativa)) | Plant response rating, Sedge, Umbrella (0 to 100 scale, 0 is no effect, 100 is complete control) [15] | Plant response rating, Ducksalad (0 to 100 scale, 0 is no effect, 100 is complete control) [16] | Plant response rating, Barnyardgrass (0 to 100 scale, 0 is no effect, 100 is complete control) [17] | other results |
| --- | --- | --- | --- | --- | --- | --- | --- | --- | --- | --- | --- | --- | --- | --- | --- | --- | --- | --- | --- |
| Cc1ccc2c([C@@H](Nc3ncc(C(F)(F)F)c(N)n3)C3CC3)coc2c1 [Compound 91] | 0 | 0 | 0 | 0 | 0 | 0 | 0 | 0 | 0 | 0 | 0 | 0 | 0 | 0 | 0 | 0 | 0 | 0 | Barnyardgrass plant response rating ([1]; 500 g ai/ha): 0; Kochia plant response rating (kochia (Kochia scoparia) [2]; 500 g ai/ha): 0; Ragweed plant response rating ([3]; 500 g ai/ha): 0; Ryegrass, Italian plant response rating ([4]; 500 g ai/ha): 30; Foxtail, Giant plant response rating ([5]; 500 g ai/ha): 0; Pigweed plant response rating ([6]; 125 g ai/ha): 0; Pigweed plant response rating ([6]; 500 g ai/ha): 0; Plant response rating, Kochia (kochia (Kochia scoparia) [7]; 500 g ai/ha): 0; Plant response rating, Ragweed ([8]; 500 g ai/ha): 0; Plant response rating, Ryegrass, Italian ([9]; 500 g ai/ha): 0; Plant response rating, Foxtail, Giant ([10]; 500 g ai/ha): 0; Plant response rating, Pigweed ([11]; 500 g ai/ha): 0; Plant response rating, Wheat ([12]; 500 g ai/ha): 0; Plant response rating, Corn (corn (Zea mays); 500 g ai/ha): 0; Plant response rating, Blackgrass ([13]; 500 g ai/ha): 0; Plant response rating, Galium ([14]; 500 g ai/ha): 0 |
| C[C@@H](Nc1ncc(C(F)(F)F)c(N)n1)c1cc2ccccc2[s+]1[O-] (some centres unmarked) [Compound 113] | 0 | 80 | 20 | 30 | 10 | 70 | 40 | 0 | 0 | 100 | 0 | 0 | 0 | 70 | 0 | 0 | 0 | 0 | Barnyardgrass plant response rating ([1]; 31 g ai/ha): 0; Kochia plant response rating (kochia (Kochia scoparia) [2]; 31 g ai/ha): 20; Ragweed plant response rating ([3]; 31 g ai/ha): 0; Ryegrass, Italian plant response rating ([4]; 31 g ai/ha): 0; Foxtail, Giant plant response rating ([5]; 31 g ai/ha): 0; Plant response rating, Barnyardgrass ([18]; 31 g ai/ha): 0; Plant response rating, Barnyardgrass ([18]; 125 g ai/ha): 0; Plant response rating, Kochia (kochia (Kochia scoparia) [7]; 31 g ai/ha): 30; Plant response rating, Ragweed ([8]; 31 g ai/ha): 0; Plant response rating, Ryegrass, Italian ([9]; 31 g ai/ha): 0; Plant response rating, Foxtail, Giant ([10]; 31 g ai/ha): 0; Plant response rating, Pigweed ([11]; 31 g ai/ha): 40; Plant response rating, Wheat ([12]; 31 g ai/ha): 0; Plant response rating, Corn (corn (Zea mays); 31 g ai/ha): 20; Plant response rating, Blackgrass ([13]; 31 g ai/ha): 0; Plant response rating, Galium ([14]; 31 g ai/ha): 40 |
